Experimental data published in PubChem BioAssay (NCI).
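Results reflect a 48-hour exposure of cells in 96-well plates to compound at five concentrations. GI50: concentration for 50% inhibition of growth. Definition used: TGI = concentration required for complete inhibition of growth.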

Assays:
Experiment in all cases: NCI tumour cell line growth inhibition, 48 h
A498 renal = test system: A498 renal
SR leukemia = test system: SR leukemia
OVCAR-8 ovarian = test system: OVCAR-8 ovarian
TK-10 renal = test system: TK-10 renal
SK-MEL-2 melanoma = test system: SK-MEL-2 melanoma
OVCAR-5 ovarian = test system: OVCAR-5 ovarian
KM12 colon = test system: KM12 colon
UACC-62 melanoma = test system: UACC-62 melanoma
HCC-2998 colon = test system: HCC-2998 colon
SK-MEL-28 melanoma = test system: SK-MEL-28 melanoma

Row | SMILES | GI50 (A498 renal) [µM] | TGI (A498 renal) [µM] | GI50 (SR leukemia) [nM] | TGI (SR leukemia) [µM] | GI50 (OVCAR-8 ovarian) [µM] | TGI (OVCAR-8 ovarian) [µM] | GI50 (TK-10 renal) [nM] | TGI (TK-10 renal) [µM] | GI50 (SK-MEL-2 melanoma) [µM] | TGI (SK-MEL-2 melanoma) [µM] | GI50 (OVCAR-5 ovarian) [nM] | TGI (OVCAR-5 ovarian) [µM] | GI50 (KM12 colon) [µM] | TGI (KM12 colon) [µM] | GI50 (UACC-62 melanoma) [µM] | TGI (UACC-62 melanoma) [µM] | GI50 (HCC-2998 colon) [nM] | TGI (HCC-2998 colon) [µM] | GI50 (SK-MEL-28 melanoma) [nM] | TGI (SK-MEL-28 melanoma) [µM]
1 | Cn1cc(-c2csc(-c3cn(C)c4ncccc34)n2)c2ccccc21 | 0.496 | 8.65 | 96.1 | > 43.9 | 0.666 | 22.7 | 1000 | 19.4 | 0.405 | 16.8 | 876 | 23.8 | 0.242 | > 76.7 | 0.325 | 44.3 | 1150 | > 100 | 1230 | > 100
2 | CC1OC(OC2C(OC3CCC4(C)C(CCC5(C)C4CC=C4C6CC(C)(C)CCC6(CO)C(O)CC45C)C3(C)C)OC(C(=O)O)C(OC3OC(COC4OC(CO)C(O)C(O)C4O)C(O)C(O)C3O)C2O)C(O)C(O)C1O (stereo unspecified) | 13.2 | 23.9 | 1970 | 5.63 | 13.5 | 28.5 | 16100 | 28.4 | 8.57 | 20.1 | 5170 | 16.7 | 3.25 | 14.1 | 9.64 | 20.6 | 1730 | 4.45 | 1960 | 9.02
3 | O=C1/C(=C\c2ccccc2)CN(C(=O)c2ccccc2F)C/C1=C\c1ccccc1 | 2.63 | 13.2 | 407 | 3.45 | 2.67 | 7.9 | 2330 | 5.75 | 2.95 | 8.3 | 2160 | 5.38 | 1.37 | 3.11 | 1.68 | 3.41 | 2110 | 3.66 | 2080 | 4.05
4 | NC(=NCc1ccccc1)N/N=C\c1ccnc2ccccc12 | – | 25.2 | – | 4.98 | – | 29.9 | – | 32.1 | – | 22.1 | – | 32.7 | – | 47.9 | – | 29.4 | – | 4.51 | – | 25.1
5 | C#CCSc1nnnn1-c1ccc(Br)c(C)c1 | 18.9 | 81.1 | 19800 | > 100 | 20.3 | > 100 | 35400 | > 100 | 21.6 | 57 | 69400 | > 100 | 35 | > 100 | 18.3 | 91.2 | 33800 | > 100 | 50100 | > 100
6 | COc1cc(-c2cn(-c3ccc(Cl)cc3)c(=O)n2-c2ccccc2)cc(OC)c1OC | 18.7 | > 92.4 | – | > 100 | 40.8 | > 100 | > 100000 | > 100 | > 25.9 | > 100 | > 100000 | > 100 | > 69.9 | > 100 | 32.5 | > 100 | > 56300 | > 100 | 56400 | > 100
7 | CCOC(=O)/C(=C/c1c(-c2ccccc2)[nH]c2ccccc12)C(=O)c1ccc(Cl)cc1 | 8.81 | > 100 | 3140 | 6.42 | 5.75 | > 100 | 28200 | > 100 | 3.99 | 47.5 | > 100000 | > 100 | 3.29 | > 100 | 3.27 | 37.1 | 3940 | > 100 | 5260 | > 100
8 | Nc1ccc(C(=O)O)c2[nH]c3ccccc3c(=O)c12 | – | > 100 | – | > 100 | – | > 100 | – | > 100 | – | > 100 | – | > 100 | – | > 100 | – | > 100 | – | > 100 | – | –
9 | COc1cc(C2c3cc4c(cc3[C@@H](OCCN)[C@H]3COC(=O)C23)OCO4)cc(OC)c1O (stereo partly specified) | – | 1.67 | – | 0.0693 | – | 2.61 | – | > 19.8 | – | 0.883 | – | 3.6 | – | – | – | 0.579 | – | 2.1 | – | 2.37
10 | CC(=O)OCC1OC(n2cnc3c(I)nc(I)nc32)C(OC(C)=O)C1OC(C)=O (stereo unspecified) | – | 38.3 | – | 11.8 | – | 24.1 | – | 33.6 | – | 33 | – | 35.1 | – | 15.6 | – | 27.2 | – | 16.9 | – | 28.5
11 | Cn1c(=O)c2c(nc3n2C(CCl)CO3)n(C)c1=O (stereo unspecified) | – | > 100 | – | > 100 | – | > 100 | – | > 100 | – | > 100 | – | > 100 | – | > 100 | – | > 100 | – | > 100 | – | > 100
12 | COc1cc2c(c(Br)c1N)-c1cc(Br)c(N)cc1C2=O | > 61.7 | > 100 | 59.2 | > 100 | 4.9 | > 100 | 354 | > 100 | > 100 | > 100 | 89.4 | > 100 | > 85.1 | > 100 | > 100 | > 100 | 4970 | > 100 | > 100000 | > 100
13 | NCCCNCCCNc1nc2ccccc2c2[nH]c3ccccc3c12 | 0.995 | 2.44 | 5.9 | 1.17 | 0.0346 | 4.3 | 1100 | 3.68 | 0.703 | 2.42 | 215 | 1.61 | 0.684 | 3.93 | 0.327 | 1.73 | 109 | 0.733 | 464 | 2.1
14 | C=C1C(=O)C23C(O)C1CCC2C12CO[C@]3(O)[C@@H](O)C1C(C)(C)CCC2O (stereo partly specified) | – | 36.5 | – | > 100 | – | 20.5 | – | 34.3 | – | 30.2 | – | 34.5 | – | 31.7 | – | 26.4 | – | 30.4 | – | 11.4
15 | N/C(=N\N=C=C1C(=O)Nc2ccc(F)cc21)NO | – | > 100 | – | > 100 | – | > 100 | – | > 100 | – | > 100 | – | – | – | > 100 | – | > 100 | – | > 100 | – | > 100
